Measurements published in patent publication US20150065421A1, “BASAL INSULIN THERAPY” (SANOFI, priority 2012, published 2015).

Legend:
[1] = system: participants without diabetes at randomization (IFG and/or IGT); experiment: ORIGIN trial: new type 2 diabetes in participants without baseline diabetes (oral glucose tolerance tests); assay type: in vivo, human
Source text: Participants were asked to self-administer daily subcutaneous saline injections and to check their capillary glucose levels during a 10 day run-in period. Adherent participants were then provided with lifestyle advice and randomly allocated to either insulin glargine (Lantus™) or standard approaches to glycaemic control. Participants allocated to insulin glargine who were also taking a thiazolidinedione stopped that medication at the time of randomization; otherwise the insulin glargine was added to their glycemic regimen. These participants were instructed to inject insulin glargine in the evening, starting at 2, 4 or 6 units (depending on their initial FPG) and to increase the dose at least once per week targeting a self-measured FPG level ≦5.3 mmol/l (95 mg/dl) and ≧4 mmol/l (72 mg/dl). […] If participants developed uncontrolled hyperglycemia, investigators were permitted to add rapid-acting insulin. No other glucose-lowering medication could be added or increased. FPG levels were measured in the local laboratory at every visit and the results were regularly reviewed along with the dose of insulin to ensure that insulin was being effectively trirated. People not diagnosed with diabetes by the time of the penultimate study visit down-titrated insulin glargine by 10 units per day and stopped any metformin that was prescribed.
There were 2 co-primary composite CV outcomes. The first was CV death, non-fatal MI or non-fatal stroke, and the second was a composite of any of these events or a revascularization procedure or hospitalization for heart failure. Secondary outcomes included a composite microvascular outcome comprising a doubling of serum creatinine from baseline, progression of albuminuria category from normoalbuminuria or microalbuminuria to microalbuminuria or overt nephropathy, renal replacement therapy, renal death, retinal photocoagulation or vitrectomy for retinopathy. They also included new type 2 diabetes developing by the time of the 1st post-trial oral glucose tolerance test in participants without baseline diabetes, and all-cause mortality. Other outcomes included incident cancers, CV hospitalizations, and angina. Cardiovascular and cancer outcomes were reviewed by adjudicators masked to treatment allocation. Episodes of hypoglycaemia since the prior visit were recorded at each visit. Symptomatic hypoglycemia was classified as confirmed if a concomitant recorded capillary glucose level was <3 mmol/L (54 mg/dL). Severe hypoglycemia was defined as hypoglycemia that required assistance plus either prompt recovery with glucose or glucagon or a documented capillary glucose ≦2.0 (36 mg/dL). New diabetes was diagnosed if 2 consecutive FPG levels within a 4-month period were ≧7 mM (126 mg/dL) during the trial; a diagnosis of diabetes was made by a physician and a pharmacologic antidiabetic agent was being taken and there was evidence of either a FPG ≧7 mM (126 mg/dL) or any glucose value ≧11.1 mM (200 mg/dL); either 1 or more capillary glucose levels were ≧11.1 mM (200 mg/dl) and a lab-measured FPG was ≧7 mmol/l (126 mg/dl) or a lab measured random glucose level was ≧11.1 mM (200 mg/dl) during down-titration of glargine insulin; or any FPG was ≧7 mM (126 mg/dl) or 2 hour plasma glucose was ≧11.1 mM (200 mg/dl) during the first oral glucose tolerance test.
Data were analyzed using SAS (version 9.1 for Solarus) according to an intention-to-treat approach described in the protocol and a predefined statistical analysis plan. […] Baseline characteristics were summarized using means and standard deviatons, medians and interquartile ranges, or counts and percentages as appropriate. Time-to-event curves were constructed using product limit estimation and compared using stratified log-rank tests. Hazard ratios for each outcome were calculated using Cox regression models adjusted for the factorial allocation, baseline diabetes status and a history of a prior CV event before randomization as described in the protocol. […]

[2] = system: people at high risk for vascular disease with either IFG, IGT, or early type 2 diabetes; experiment: ORIGIN trial: blood triglyceride and cholesterol change; assay type: in vivo, human; settings: glargine group
[3] = cited from earlier work

(Gly A21) Arg (B31) Arg (B32) human insulin [insulin glargine]
reduction of incidence of new diabetes including suspected cases ([1]; confirmed plus suspected, unconfirmed cases): 30% | OR for protocol-defined new diabetes ([1]; glargine vs standard care, 95% CI 0.58, 0.92, P=0.007): 0.73 | OR for new diabetes after 2nd OGTT ([1]; glargine vs standard care, 95% CI 0.64, 1.00, P=0.052): 0.80 | incidence of new diabetes including suspected cases ([1]; insulin glargine group): 35% | total rate of diabetes after repeated (2nd) OGTT ([1]; insulin glargine group, median 100 days after insulin was stopped): 30% | participants developing protocol-defined diabetes ([1]; insulin glargine group, up to 1st post-trial OGTT): 25% | less likely to develop protocol-defined diabetes than standard care participants ([1]; up to 1st post-trial OGTT): 27% | change of triglyceride concentration in the blood ([2]; P<0.001 vs standard care): −0.21 (0.03) | Total cholesterol change from baseline to end-of-study ([2]; p 0.044 vs standard care): -0.41 mmol/L | mean duration of action ([3]; in vivo): approximately 20 hours | duration of glucose lowering effect ([3]; smooth, without a definite peak): 24 h
